Measurements published in patent publication US10407454B2, “Defined enzymatic synthesis of lipid A analogs” (The Board of Trustees of the Leland Stanford Junior …, priority 2016, dated 2019).

Biological target: T1, TLR4 (Homo sapiens, UniProt O00206+Q9Y6Y9)
T1 construct: endogenous in cells; host or cells: HUVEC
Assay: TLR signaling assay: IL-6 release (ELISA) from LPS-stimulated HUVEC cells pretreated with Lipid IVA or analogs
Assay type: cell-based
Conditions: 1 hour pretreatment, then 100 ng/mL LPS, supernatant 18 hours after LPS, mean ± SD of triplicate wells (LPS only: 425 ± 7)
Method: Antagonistic Effect of Unsaturated Lipid IVA. To examine the antagonistic effect of the Lipid IVA analogues produced by our reconstituted system, products from sample 1-3 were assayed against LPS stimulated HUVEC microphage cell line. IL-6 level was measured as an indicator of TLR4 suppression. As a negative control, an in vitro reaction lacking acetyl-CoA was run and processed in parallel. Lipid IVA samples was quantified via mass spectrometry by comparing with a standard curve generated from synthetic Lipid IVA standard. […]
TLR Signaling Assays. HUVECs were grown to approximately 80% confluency in plastic 48-well cell culture plates. Six hours prior to the beginning the assay, medium was aspirated and replaced with 200 μL fresh medium per well. 100× stock dilutions of LPS (in sterile water) and Lipid IVa (in methanol) were freshly prepared from lyophilized solids. Cells were subjected to a 1-hour preincubation with the indicated amounts of Lipid IVa, or Samples 1, 2, or 3, and then LPS (100 ng/mL) was added. Aliquots of the culture supernatant were taken after 18 hours, frozen at −20 C, and then analyzed for IL-6 using a commercial ELISA kit following the manufacturer's (eBioSciences) recommended protocol.

T1 sequence (O00206 24-839): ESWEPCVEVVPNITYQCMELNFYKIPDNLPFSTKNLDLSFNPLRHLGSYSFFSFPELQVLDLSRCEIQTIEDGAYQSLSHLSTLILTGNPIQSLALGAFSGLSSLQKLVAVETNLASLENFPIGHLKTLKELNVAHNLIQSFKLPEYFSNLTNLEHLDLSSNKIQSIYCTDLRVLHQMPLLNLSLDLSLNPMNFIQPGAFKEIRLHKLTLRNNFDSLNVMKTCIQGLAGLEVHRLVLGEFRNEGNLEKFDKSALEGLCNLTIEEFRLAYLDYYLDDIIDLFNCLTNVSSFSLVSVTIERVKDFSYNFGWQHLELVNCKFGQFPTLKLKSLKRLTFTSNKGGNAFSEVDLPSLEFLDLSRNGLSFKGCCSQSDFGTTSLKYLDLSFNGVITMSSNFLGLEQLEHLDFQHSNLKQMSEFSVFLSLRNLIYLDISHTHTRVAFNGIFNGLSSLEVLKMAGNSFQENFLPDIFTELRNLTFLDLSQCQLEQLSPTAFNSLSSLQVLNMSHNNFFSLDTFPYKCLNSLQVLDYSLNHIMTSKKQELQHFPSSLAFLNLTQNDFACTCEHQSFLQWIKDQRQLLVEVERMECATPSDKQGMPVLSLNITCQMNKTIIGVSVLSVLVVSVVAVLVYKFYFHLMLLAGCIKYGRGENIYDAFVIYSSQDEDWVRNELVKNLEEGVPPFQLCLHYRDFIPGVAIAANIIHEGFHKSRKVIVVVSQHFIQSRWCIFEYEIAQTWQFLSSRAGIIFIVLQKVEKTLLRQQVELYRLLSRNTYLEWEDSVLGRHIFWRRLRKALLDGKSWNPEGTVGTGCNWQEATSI
T1 sequence (Q9Y6Y9 19-160): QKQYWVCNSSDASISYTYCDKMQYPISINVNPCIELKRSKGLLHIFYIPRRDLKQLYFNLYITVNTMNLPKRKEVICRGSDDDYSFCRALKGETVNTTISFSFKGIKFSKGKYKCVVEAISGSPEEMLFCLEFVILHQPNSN

`CCCCCCCCCCC[C@@H](O)CC(=O)N[C@H]1[C@H](OC[C@H]2O[C@H](OP(=O)(O)O)[C@H](NC(=O)C[C@H](O)CCCCCCCCCCC)[C@@H](OC(=O)C[C@H](O)CCCCCCCCCCC)[C@@H]2O)O[C@H](CO)[C@@H](OP(=O)(O)O)[C@@H]1OC(=O)C[C@H](O)CCCCCCCCCCC` [Lipid IVA] was tested, and the “[IL-6] (pg/mL) in HUVEC culture supernatant” value (“[IL-6] (pg/mL)” below) (10 ng/mL compound) was 484 ± 25 pg/mL, the “[IL-6] (pg/mL)” value (100 ng/mL compound) was 212 ± 33 pg/mL and the “[IL-6] (pg/mL)” value (500 ng/mL compound) was 57 ± 3 pg/mL.
